Source: patent publication US8828451B2, “Akt sensitization of cancer cells” (University of South Florida, priority 2006, dated 2014)

Key:
C-13 cells [1] = test: MTT cell survival assay, CDDP-resistant C-13 cells; settings: C-13, increasing amounts of CDDP alone, MTT 24 hr
Method: (§1) CDDP-resistant ovarian cancer cell lines A2780CP and C-13 were treated with CDDP at indicated concentrations alone, or in combination with 10 μM API-2. Cell survival was determined 24 hr later by MTT assay.
A2780CP and C-13 cells were treated with increasing amounts of CDDP alone or in combination with 10 μM API-2.

A2780CP cells [2] = test: MTT cell survival assay, CDDP-resistant A2780CP cells; settings: increasing amounts of CDDP alone, MTT 24 hr
Method: as §1
API-2 was further investigated to determine whether it can overcome CDDP resistance by blocking Akt signaling pathways. A2780CP and C-13 cells were treated with increasing amounts of CDDP alone or in combination with 10 μM API-2.

Akt phosphorylation = test: Western blot of MCF-7 lysates for phosphorylated Akt, S6, p70-S6K; assay type: cell-based, human
Method: (A) OVCAR-3 human ovarian cancer and (B) MCF-7 human breast cancer cell lines were treated with mTOR inhibitors rapamycin (OVCAR-3 cells only) or RAD001 (MCF-7 cells only). Cell lysates were probed for phosphorylated and total Akt, and phosphorylated and total S6 at the indicated time points. […] Akt substrate FKHRL1, an apoptotic protein, was also detected.
(A) OVCAR-3 and (B) MCF-7 cells were treated with rapamycin (OVCAR-3 cells only), RAD001 (MCF-7 cells only), API-2, or a combination of API-2 with either rapamycin or RAD001. Akt phosphorylation increased in both cell lines after either rapamycin or RAD001 treatment.
Results of Western Blot for phosphorylated Akt (p-Akt) indicate C-13 and A2780CP cells had high levels of p-Akt. Further, cell survivability after chemotherapy appears directly connected to Akt up-regulation as C-13 had both the highest p-Akt and survivability. […] This caused an increase in p-Akt within 1 hour of treatment, confirming a relationship between p-Akt and cell survival after chemotherapy.

[3] = test system: MCF-7 human breast cancer; test: Cell number growth over six days, MCF-7 cells; assay type: cell-based; settings: MCF-7, 25 nM RAD001, 5 μM API-2 or combination
C-13 cells [4] = settings: C-13, drug individually or combination of both drugs
A2780CP cells [5] = settings: drug individually or combination of both drugs

Compound: [Cl][Pt+2][Cl].[NH2-].[NH2-] [CDDP, cis-Diammine-dicholoroplatinum(II)]
- effect on cell survival (C-13 cells [1]): no significant effect on cell survival
- effect on cell survival (A2780CP cells [2]): no significant effect on cell survival

Compound: CO[C@H]1C[C@@H]2CC[C@@H](C)[C@@](O)(O2)C(=O)C(=O)N2CCCC[C@H]2C(=O)O[C@H]([C@H](C)C[C@@H]2CC[C@@H](OCCO)[C@H](OC)C2)CC(=O)[C@H](C)/C=C(\C)[C@@H](O)[C@@H](OC)C(=O)[C@H](C)C[C@H](C)/C=C/C=C/C=C/1C [RAD001]
- Akt phosphorylation (Akt phosphorylation; MCF-7): increased with longer exposure time
- phosphorylated S6 (Akt phosphorylation; MCF-7, indicated time points): decreased with exposure
- cell growth (cell numbers) [3]: inhibited cell growth

Compound: CC(=O)O[C@H]1C(=O)[C@@]2(C)[C@H]([C@H](OC(=O)c3ccccc3)[C@]3(O)C[C@H](OC(=O)[C@H](O)[C@@H](NC(=O)c4ccccc4)c4ccccc4)C(C)=C1C3(C)C)[C@]1(OC(C)=O)CO[C@@H]1C[C@@H]2O [Taxol]
- apoptosis (Capase-Glo 3/7) (C-13 cells [4]): increased apoptosis slightly
- apoptosis (Capase-Glo 3/7) (A2780CP cells [5]): increased apoptosis slightly
